In ChEMBL document CHEMBL1909590, “Design, synthesis and docking studies of new quinoline-3-carbohydrazide derivatives as antitubercular agents” (2011):
Values after ≈ are worked out from the molar mass of the structure shown.

What was measured:
Format in all cases: functional
[1] = tested on: Mycolicibacterium smegmatis; assay: Antimycobacterial activity against Mycobacterium smegmatis MC2 ATCC 19420 using compound level ranging from 1 to 100 ug/mL after 7 days by resazurin reduction test; settings: MC2 ATCC 19420, 168 h
[2] = tested on: Mycolicibacterium smegmatis; assay: Antimycobacterial activity against Mycobacterium smegmatis MC2 ATCC 19420 using compound level ranging from 0.3125 to 5 ug/mL after 7 days by resazurin reduction test; settings: MC2 ATCC 19420, 168 h
[3] = tested on: Mycobacterium tuberculosis; assay: Antimycobacterial activity against Mycobacterium tuberculosis H37Rv ATCC 27294 using compound level ranging from 0.3125 to 5 ug/mL after 7 days by resazurin reduction test; settings: H37Rv ATCC 27294, 168 h
Escherichia coli = assay: Antibacterial activity against Escherichia coli ATCC 25922 after 18 to 25 hrs by serial plate dilution method
Streptococcus pyogenes = assay: Antibacterial activity against Streptococcus pyogenes clinical isolate after 18 to 25 hrs by serial plate dilution method
Pseudomonas aeruginosa = assay: Antibacterial activity against Pseudomonas aeruginosa ATCC 27853 after 18 to 25 hrs by serial plate dilution method
Klebsiella pneumoniae = assay: Antibacterial activity against Klebsiella pneumoniae clinical isolates after 18 to 25 hrs by serial plate dilution method
[4] = tested on: Mycobacterium tuberculosis; assay: Growth inhibition of Mycobacterium tuberculosis H37Rv ATCC 27294 using compound level ranging from 1 to 100 ug/mL after 7 days by resazurin reduction test
[5] = tested on: Mycolicibacterium fortuitum; assay: Antimycobacterial activity against Mycobacterium fortuitum ATCC 19542 using compound level ranging from 0.3125 to 5 ug/mL after 7 days by resazurin reduction test; settings: ATCC 19542, 168 h
Staphylococcus aureus = assay: Antibacterial activity against Staphylococcus aureus ATCC 25923 after 18 to 25 hrs by serial plate dilution method
[6] = tested on: Mycolicibacterium fortuitum; assay: Antimycobacterial activity against Mycobacterium fortuitum ATCC 19542 using compound level ranging from 1 to 100 ug/mL after 7 days by resazurin reduction test; settings: ATCC 19542, 168 h
[7] = tested on: Mycobacterium tuberculosis; assay: Antimycobacterial activity against Mycobacterium tuberculosis H37Rv ATCC 27294 using compound level ranging from 1 to 100 ug/mL after 7 days by resazurin reduction test; settings: H37Rv ATCC 27294, 168 h

SMILES | MIC [1] [µg/mL] | MIC [2] [µg/mL] | MIC [3] [µg/mL] | MIC (Escherichia coli) [µg/mL] | MIC (Streptococcus pyogenes) [µg/mL] | MIC (Pseudomonas aeruginosa) [µg/mL] | MIC (Klebsiella pneumoniae) [µg/mL] | growth inhibition (GI) [4] [%] | MIC [5] [µg/mL] | MIC (Staphylococcus aureus) [µg/mL] | MIC [6] [µg/mL] | MIC [7] [µg/mL]
COc1ccc2[nH]cc(/C=N/NC(=O)c3cnc4c(C(F)(F)F)cccc4c3O)c2c1 | 10 (≈ 23.3 µM) | 10 (≈ 23.3 µM) | 0.625 (≈ 1.46 µM) | 0.1 (≈ 0.233 µM) | 0.4 (≈ 0.934 µM) | 0.4 (≈ 0.934 µM) | 0.1 (≈ 0.233 µM) | 95 | 10 (≈ 23.3 µM) | 0.8 (≈ 1.87 µM) | 10 (≈ 23.3 µM) | 1 (≈ 2.33 µM)
Cc1[nH]cnc1/C=N/NC(=O)c1cnc2c(C(F)(F)F)cccc2c1O | 1 (≈ 2.75 µM) | 1.25 (≈ 3.44 µM) | 1.25 (≈ 3.44 µM) | 0.4 (≈ 1.1 µM) | 1.6 (≈ 4.4 µM) | 0.4 (≈ 1.1 µM) | 0.1 (≈ 0.275 µM) | 90 | 12.5 (≈ 34.4 µM) | 0.8 (≈ 2.2 µM) | 10 (≈ 27.5 µM) | 1 (≈ 2.75 µM)
Cc1cccc2c(/C=N/NC(=O)c3cnc4c(C(F)(F)F)cccc4c3O)c[nH]c12 | 1 (≈ 2.43 µM) | 1.25 (≈ 3.03 µM) | 0.625 (≈ 1.52 µM) | 0.1 (≈ 0.243 µM) | 0.4 (≈ 0.97 µM) | 0.4 (≈ 0.97 µM) | 0.1 (≈ 0.243 µM) | 95 | 10 (≈ 24.3 µM) | 0.8 (≈ 1.94 µM) | 10 (≈ 24.3 µM) | 1 (≈ 2.43 µM)
Cc1ccc(NC(=O)NNC(=O)c2cnc3c(C(F)(F)F)cccc3c2O)cc1 | 10 (≈ 24.7 µM) | 10 (≈ 24.7 µM) | 1.25 (≈ 3.09 µM) | 0.2 (≈ 0.495 µM) | 0.4 (≈ 0.989 µM) | 0.8 (≈ 1.98 µM) | 0.1 (≈ 0.247 µM) | 90 | 10 (≈ 24.7 µM) | 0.8 (≈ 1.98 µM) | 10 (≈ 24.7 µM) | 1 (≈ 2.47 µM)
COc1ccc(/C=N/NC(=O)c2cnc3c(C(F)(F)F)cccc3c2O)cc1 | 10 (≈ 25.7 µM) | 10 (≈ 25.7 µM) | 1.25 (≈ 3.21 µM) | 0.4 (≈ 1.03 µM) | 0.4 (≈ 1.03 µM) | 0.8 (≈ 2.05 µM) | 0.8 (≈ 2.05 µM) | 90 | 10 (≈ 25.7 µM) | 0.8 (≈ 2.05 µM) | 10 (≈ 25.7 µM) | 1 (≈ 2.57 µM)
Cn1cccc1/C=N\NC(=O)c1cnc2c(C(F)(F)F)cccc2c1O | 1 (≈ 2.76 µM) | 1.25 (≈ 3.45 µM) | 0.625 (≈ 1.73 µM) | 0.1 (≈ 0.276 µM) | 0.4 (≈ 1.1 µM) | 0.4 (≈ 1.1 µM) | 0.1 (≈ 0.276 µM) | 90 | 10 (≈ 27.6 µM) | 0.8 (≈ 2.21 µM) | 10 (≈ 27.6 µM) | 1 (≈ 2.76 µM)
O=C(N/N=C/c1cc(F)ccc1O)c1cnc2c(C(F)(F)F)cccc2c1O | 10 (≈ 25.4 µM) | 10 (≈ 25.4 µM) | 2.5 (≈ 6.36 µM) | 0.1 (≈ 0.254 µM) | 0.8 (≈ 2.03 µM) | 0.4 (≈ 1.02 µM) | 0.1 (≈ 0.254 µM) | <90 | 10 (≈ 25.4 µM) | 0.8 (≈ 2.03 µM) | 10 (≈ 25.4 µM) | 10 (≈ 25.4 µM)
